The text below walks through data of PubChem BioAssay (NCI).

“And” between values parts separate entries of the source, which are not always exact repeats. Equal values may be shown once.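 Dose response: 5 concentrations. Exposure: 48 h. Format: 96-well plates. Endpoint: linear interpolation; highest concentration if not reached. Abbreviation: GI50, concentration required for 50% inhibition of growth. Definition used: TGI = concentration required for complete inhibition of growth.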

Some test systems named below: OVCAR-8 ovarian; SR leukemia; NCI-H226 lung; SK-OV-3 ovarian; EKVX NSCLC; RPMI-8226 leukemia; HOP-92 NSCLC; MALME-3M melanoma; ACHN renal; SNB-75 CNS.
Holding throughout (experiment): DTP human tumour cell line panel, 48 h

With `O=C(Nc1ccc(Cl)cc1)Nc1ccc(Nc2nncc3ccccc23)cc1`, the GI50 (in general, the concentration that inhibits growth by half) in the assay with OVCAR-8 ovarian was 3.12 µM; with SR leukemia it was 3.89 µM; in the assay on NCI-H226 lung it was 2.46 µM; with SK-OV-3 ovarian it was 3.05 µM; in the assay with EKVX NSCLC it was 2.95 µM; in the assay with RPMI-8226 leukemia, 2.5 µM. Besides, the GI50 in the assay on HOP-92 NSCLC is 2.55 µM; in the assay on MALME-3M melanoma it was 3.94 µM; in the assay on ACHN renal, 1.12 µM; in the assay on SNB-75 CNS, 1.88 µM. In addition, the concentration for total growth inhibition (TGI) (commonly the concentration at which net growth stops) turned out to be 12.4 µM in the assay on OVCAR-8 ovarian; 23.4 µM in the assay with SR leukemia; 12.5 µM in the assay with NCI-H226 lung; 17.7 µM in the assay with SK-OV-3 ovarian; 25.3 µM with EKVX NSCLC; 8.75 µM in the assay on RPMI-8226 leukemia. Also, the total growth inhibition concentration (TGI) was determined as 7.26 µM in the assay with HOP-92 NSCLC, 16.5 µM with MALME-3M melanoma, 7.12 µM with ACHN renal and 8.67 µM with SNB-75 CNS.

As to `C=C1C(=O)OC2/C=C(/C)C(OC(C)=O)CC(O)/C(C)=C\C(OC(=O)/C(C)=C\C)C12` (stereo not drawn), the TGI in the assay on OVCAR-8 ovarian, with SR leukemia, with NCI-H226 lung, in the assay on SK-OV-3 ovarian, in the assay on EKVX NSCLC and in the assay with RPMI-8226 leukemia was above 100 µM throughout. The total growth inhibition concentration (TGI) in the assay on HOP-92 NSCLC is above 100 µM; with MALME-3M melanoma, 30.9 µM; with ACHN renal, above 100 µM; in the assay with SNB-75 CNS, above 100 µM.

In the case of `Cc1cc(Cl)ccc1NC(=O)CC/C(CC(=O)C(C)C)=N\NC(=O)C[n+]1ccccc1`, the TGI in the assay on OVCAR-8 ovarian, with SR leukemia, with NCI-H226 lung, in the assay on SK-OV-3 ovarian, in the assay on EKVX NSCLC and in the assay on RPMI-8226 leukemia was above 100 µM in each case. Also, the TGI in the assay on HOP-92 NSCLC, in the assay on MALME-3M melanoma, with ACHN renal and in the assay on SNB-75 CNS was above 100 µM throughout.

For `CCOc1cc2ncc(C#N)c(Nc3ccc(OCc4ccccn4)c(Cl)c3)c2cc1NC(=O)/C=C/CN(C)C`, the GI50 in the assay with OVCAR-8 ovarian was 0.28 µM and 0.339 µM; in the assay on SR leukemia, 0.413 µM; in the assay with NCI-H226 lung, 6.06 µM and 1.69 µM; in the assay on SK-OV-3 ovarian it was < 0.01 µM and 0.00218 µM; in the assay on EKVX NSCLC, 0.0183 µM and 0.0189 µM; in the assay on RPMI-8226 leukemia it was 1.11 µM and 0.695 µM. Besides, the GI50 in the assay on MALME-3M melanoma was 0.61 µM; in the assay with ACHN renal, 0.0358 µM and 0.0817 µM; in the assay with SNB-75 CNS, 0.915 µM and 0.362 µM. The TGI with OVCAR-8 ovarian was 1.65 µM and > 4.46 µM; with SR leukemia it was above 3.38 µM; in the assay on NCI-H226 lung, 26.7 µM and > 7.67 µM; with EKVX NSCLC, 25.6 µM and > 6.84 µM; in the assay with RPMI-8226 leukemia, 4.38 µM and 3.79 µM; in the assay on HOP-92 NSCLC, 22.8 µM and 4.06 µM. For the same compound, the concentration for total growth inhibition (TGI) in the assay on MALME-3M melanoma was 2.59 µM; in the assay on ACHN renal, 4.14 µM and > 10 µM; in the assay with SNB-75 CNS, 5.87 µM and > 5.3 µM.

Consider `CC1(C)[C@@H](OC(N)=O)[C@H]2O[C@H]2[C@]2(CO)[C@H]3CC[C@]4(C)[C@@H](c5ccc(=O)oc5)[C@@H](Cl)C[C@]4(O)C3=CC[C@@H]12`, for which the concentration for 50% growth inhibition (GI50) is 0.00863 µM in the assay on OVCAR-8 ovarian; 0.00681 µM in the assay with SR leukemia; 0.0061 µM in the assay with NCI-H226 lung; 0.00661 µM in the assay with SK-OV-3 ovarian; 0.00534 µM in the assay with EKVX NSCLC; below 0.011 µM with RPMI-8226 leukemia. For the same compound, the 50% growth inhibitory concentration (GI50) is 0.0127 µM with HOP-92 NSCLC, 0.00616 µM in the assay with MALME-3M melanoma, 0.00515 µM in the assay on ACHN renal and 0.00467 µM with SNB-75 CNS. The concentration for total growth inhibition (TGI) in the assay with OVCAR-8 ovarian is 0.0297 µM; in the assay with SR leukemia, 0.0195 µM; in the assay on NCI-H226 lung, 0.0152 µM; in the assay on SK-OV-3 ovarian, 0.018 µM; with EKVX NSCLC, below 0.0138 µM; in the assay on RPMI-8226 leukemia, 0.126 µM. For the same compound, the TGI with HOP-92 NSCLC came to 0.0921 µM; with MALME-3M melanoma, 0.0149 µM; in the assay with ACHN renal, 0.0118 µM; in the assay with SNB-75 CNS it was 0.0138 µM.

Take `Nc1nc(Nc2ccc(C3CCC(N4CCOCC4)CC3)cc2)nn1-c1ccccn1` (stereo not drawn): the GI50 in the assay on OVCAR-8 ovarian is 11.6 µM; with SR leukemia, 0.366 µM; in the assay on NCI-H226 lung, 2.4 µM; in the assay with SK-OV-3 ovarian, 18.1 µM; in the assay with EKVX NSCLC, 8.21 µM; in the assay with RPMI-8226 leukemia, 2.57 µM. Besides, the GI50 is 1.59 µM in the assay on HOP-92 NSCLC, 5.58 µM with MALME-3M melanoma, 4.26 µM in the assay with ACHN renal and 1.9 µM with SNB-75 CNS. For the same compound, the concentration for total growth inhibition (TGI) in the assay on OVCAR-8 ovarian is above 100 µM; in the assay with SR leukemia, 3.29 µM; with NCI-H226 lung it was above 58.4 µM; in the assay on SK-OV-3 ovarian, above 100 µM; with EKVX NSCLC, above 100 µM; in the assay with RPMI-8226 leukemia it was 6.1 µM. For the same compound, the total growth inhibition concentration (TGI) in the assay with HOP-92 NSCLC is above 27.5 µM; with MALME-3M melanoma it was above 46 µM; in the assay on ACHN renal, above 100 µM; with SNB-75 CNS, 11.9 µM.

For the compound `C1CN(SSN2CCOCC2)CCO1`, the GI50 with OVCAR-8 ovarian was 52.1 µM; with SR leukemia, 48.9 µM; in the assay with NCI-H226 lung, above 100 µM; with SK-OV-3 ovarian, above 100 µM; in the assay with EKVX NSCLC, above 100 µM; with RPMI-8226 leukemia, 27.4 µM. Besides, the GI50 in the assay with HOP-92 NSCLC is 15.7 µM; in the assay on MALME-3M melanoma, 53.6 µM; in the assay with ACHN renal, 81 µM; in the assay with SNB-75 CNS, 44.1 µM. Moreover, the concentration for total growth inhibition (TGI) in the assay with OVCAR-8 ovarian, with SR leukemia, with NCI-H226 lung, in the assay with SK-OV-3 ovarian, in the assay with EKVX NSCLC and in the assay with RPMI-8226 leukemia was above 100 µM throughout. Moreover, the concentration for total growth inhibition (TGI) with HOP-92 NSCLC is 89.2 µM; with MALME-3M melanoma it was above 100 µM; in the assay with ACHN renal, above 100 µM; with SNB-75 CNS, above 100 µM.
